Consider 64 molecules from a melting point compilation (Tetko et al.; mined from patent text by program, amines drawn as free bases though some values may be those of a salt).

For the molecule `COC(=O)OCC(COC(=O)OC)OCn1cnc2c(=O)[nH]c(N)nc21`, the melting point (as a rule, the temperature of the solid-liquid transition) lay within 204 to 206 °C.

The molecule `C=CCc1c(O)ccc2c1C(CCNC(=O)CC)CN2C=O` (centres undefined) came in with a melting point of 173 to 175 °C.

`CCN1c2ncc(N)cc2C(=O)N(C)c2cccnc21` yielded a melting point of 189 to 191 °C.

As to `CCOc1nc2cc(C)nn2c2c1cnc1c2cnn1CC`, the melting point lay within 142 to 144 °C.

As to `Cc1ccc2cccc(OCC(=O)c3ccc(Cl)cc3)c2n1`, the melting point lay in the range of 112 to 113 °C.

`Nc1ccc2cccc(Oc3cc(-c4ccc(C(F)(F)F)cc4N)ncn3)c2n1` showed a melting point of 233 to 234 °C.

Take `COC(=O)CCNc1c(C#N)cnn1-c1c(Cl)cc(C(F)(F)F)cc1Cl`: the melting point was 171 to 173 °C.

Molecule `CCn1nc(N)nc1NCCCOc1cccc(CN2CCCCC2)c1` displayed a melting point of 116 to 118 °C.

Molecule `OC(CCc1ccc2c(c1)OCO2)C1CC1` (centres undefined) returned a melting point of 64 to 65 °C.

On to `COc1cc(C=CC(=O)c2c(OCC=C(C)C)ccc3c(C)cc(=O)oc23)cc(OC)c1OC`, for which the melting point lay within 148 to 150 °C.

For `Cc1cc(C(=S)NCc2ccc(Br)cc2F)c(OCC(=O)O)cc1F`, the melting point lay in the range of 162 to 164 °C.

`CN1C(=O)C(NC(=O)Nc2ccc(Br)cc2)N=C(c2ccccc2)c2ccccc21` (centres undefined) returned a melting point of 286 to 287 °C.

Molecule `O=Cc1cccc2ccc(-c3ccccc3)nc12` showed a melting point of 100 to 102 °C.

`NC(=NO)c1ccc(I)cc1` came in with a melting point of 155 to 161 °C.

In turn, `CCN1C(=O)N=NC1c1cccc(F)c1` (centres undefined) returned a melting point of 135 to 140 °C.

In the case of `CCOC(=O)C(=Cc1cnccc1OC)N=[N+]=[N-]`, the melting point lay in the range of 92 to 95 °C.

As for `Oc1c(CC2CCCCC2)ccc2ccccc12`, the melting point fell in the range of 53 to 56 °C.

Consider `CCOC(=O)Nc1ccc(C(=O)Nc2ccc3ccc(OC)nc3n2)cc1`, for which the melting point is 200 °C.

`NCC1CCn2c(c(C3=C(c4cccc(C(F)(F)F)c4)C(=O)NC3=O)c3ccccc32)C1` (centres undefined) yielded a melting point of 202 to 204 °C.

Take `COc1ccc(C(=O)O)c(C(=O)O)c1`: the melting point fell in the range of 168 to 174 °C.

`COC(=O)CSc1ccc(OC)cc1C(=O)OC` registered a melting point of 55 to 57 °C.

With `CC1OC(n2cnc3c(N)nc(F)nc32)C(O)C1O` (centres undefined), the melting point fell in the range of 244 to 245 °C.

`NC(=O)Cc1cc(Oc2ccc3c(ccn3C(=O)Nc3ccc(CN4CCCC4)c(C(F)(F)F)c3)c2)ncn1` showed a melting point of 123 to 124 °C.

Turning to `O=C(NCC(c1ccccc1)c1ccccc1)N1CCC(=C(c2ccccc2)c2ccccc2)CC1`, the melting point was in the range of 158 to 160 °C.

For `COC(=O)c1[nH]c(=O)n(C(=O)NCCCN2CCC(C(=O)OC)(c3ccccc3)CC2)c1-c1ccc(F)c(F)c1`, the melting point fell in the range of 134 to 136 °C.

The molecule `O=Cc1c(Cl)ccc(C(=O)O)c1Cl` gave a melting point of 188 to 190 °C.

In the case of `Cn1c(COc2ccc(CC3SC(=O)NC3=O)cc2)nc2ccc(-c3ccccc3)nc21` (centres undefined), the melting point lay within 211 to 213 °C.

Molecule `O=c1c2c(Cc3ccccc3)n[nH]c2c2cccnc2n1-c1cccc(C(F)(F)F)c1` registered a melting point of 226 to 228 °C.

As to `CCOCc1nc2c(N)nc3cc(-n4cccn4)ccc3c2n1CCCOC`, the melting point fell in the range of 159 to 160 °C.

On to `COc1cc(OC)cc(C(=CC#N)c2ccc3c(c2)nc(C)n3C)c1`, for which the melting point was 199 to 201 °C.

`Cc1ccc2c(c1)C(=O)C[C@H]1CCN(C)C[C@H]21` (relative stereo) showed a melting point of over 250 °C.

`CCN1C(=O)C(C)(C)C(=O)N(C)c2cc(CN(CCn3ccc4oc(C)cc4c3=O)Cc3ncoc3C)ccc21` showed a melting point of 129 to 130 °C.

`CC(=O)N1CCN(CCn2c3ccccc3c(=NN=C3NCCS3)c3ccccc32)CC1` yielded a melting point of 256 °C.

Consider `CON1C(C)(C)CC(OC(=O)C2=C(c3ccccc3)C(c3ccccc3)OC2=O)CC1(C)C` (centres undefined), for which the melting point lay in the range of 143 to 146 °C.

The molecule `CC(C)(C)c1cc(CCCO)cc(-n2nc3ccc(S(=O)(=O)c4ccccc4)cc3n2)c1O` yielded a melting point of 159 to 161 °C.

`O=C1CCC2=C(CCc3cc(F)ccc32)N1` displayed a melting point of 223 to 224 °C.

For `O=C(c1ccc(Cl)c([N+](=O)[O-])c1)c1cnc(NC2CCCCC2)s1`, the melting point is 194 to 198 °C.

`COc1cccc([C@@H](c2ccc(C3CN(CCC(=O)O)C3)cc2)N2C[C@@H](C)N(Cc3ccccc3)C[C@@H]2C)c1` came in with a melting point of 93 to 96 °C.

As to `CCC(CC)(CCC#N)C(NC(=O)c1ccc(Cl)cc1)NC(=NC#N)Nc1cccnc1` (centres undefined), the melting point was in the range of 150 to 152 °C.

Regarding `CS(=O)(=O)c1ccc(-n2cc(CC(=O)O)nc2-c2ccc(Cl)cc2)cc1`, the melting point was in the range of 263 to 264 °C.

As for `O=C(Nc1cccc(NC2=CC(=O)c3ccccc3C2=O)c1)c1ccccc1`, the melting point worked out at 185 °C.

As for `CCc1nc2ccccc2c(=O)o1`, the melting point turned out to be 83.9 °C.

As to `CCOc1cc(OCCO)cc2c1C(=O)N(COC(=O)c1c(Cl)cccc1Cl)S2(=O)=O`, the melting point worked out at 166 °C.

For `Cc1cc(N(C)C)nc2ccc(C=O)cc12`, the melting point lay in the range of 96 to 99 °C.

Molecule `Cc1ccc(CCOc2ncnc3c(F)cccc23)cc1` yielded a melting point of 72 to 74 °C.

Turning to `Cc1cc(-c2noc3cc(O)ccc23)ccc1O`, the melting point fell in the range of 233 to 235 °C.

Regarding `CC12C=CCC1C1CC(O)c3cc(O)ccc3C1CC2` (centres undefined), the melting point fell in the range of 150 to 157 °C.

`Brc1ccc(Cc2cc3ccccc3[nH]2)cc1` returned a melting point of 136 °C.

For `COc1ccc2c(=O)cc(CS(C)=O)oc2c1` (centres undefined), the melting point fell in the range of 157 to 159 °C.

Molecule `COC(=O)c1nnn(C)c1C(=O)OC` had a melting point of 63 to 64 °C.

As for `CCNC1([C@@H]2CCN(c3ccc4c(=O)c(C(=O)O)cn([C@@H]5C[C@@H]5F)c4c3C)C2)CC1`, the melting point lay in the range of 191 to 194 °C.

For `O=c1[nH]c2cc(Cl)ccc2c(=O)n1S(=O)(=O)c1ccccc1Cl`, the melting point lay within 275 to 276 °C.

As to `CCCCCc1ccc(CC(=O)c2ccc(OC)cc2)cc1`, the melting point was 62 °C.

Consider `C=CC[C@H](C(N)=O)[C@@H](CC(C)C)C(=O)NC1N=C(N(C)C)c2ccccc2N(C)C1=O` (some centres undefined), for which the melting point fell in the range of 230 to 232 °C.

Molecule `CNC(=O)N(O)Cc1ccoc1` returned a melting point of 129 to 131 °C.

On to `O=C1CCC(C(=O)OCc2ccc(Cl)cc2)N1` (centres undefined), for which the melting point lay within 119 to 120 °C.

In turn, `O=C(OCCOc1ccccc1)c1cccc(NC(=O)C(CS)Cc2ccccc2)c1` (centres undefined) displayed a melting point of 98 to 100 °C.

In turn, `O=C(NCc1ccccn1)c1cc(-n2cnn(Cc3ccc(F)cc3)c2=O)n[nH]1` displayed a melting point of 224 to 225 °C.

For `Cc1cc(C)c2c(c1)c(-c1ccccc1Cl)c(NC(=O)Nc1c(C)cccc1C(C)C)c(=O)n2C`, the melting point lay within 203 to 204 °C.

For the molecule `COC(=O)c1ccc(OCCCN2C(=O)c3ccccc3C2=O)c(OC)c1`, the melting point was 127 to 128 °C.

As to `CN1CCC(c2ccc(-c3ccccc3)cc2)(C(C)(C)O)CC1`, the melting point lay within 192 to 193 °C.

Take `COC(=O)/C=C/c1ccc(N2CCCC2=O)nc1`: the melting point was 151 to 160 °C.

Turning to `COc1cc(OCCCN2CCOCC2)c(C=CC(=O)c2ccc(C(N)=O)cc2)cc1-c1cccs1`, the melting point lay in the range of 81 to 83 °C.

Molecule `Cc1nsc(NC(=O)C(C)c2ccc3oc(-c4cccc(Cl)c4Cl)nc3c2)c1Cl` (centres undefined) displayed a melting point of 158 to 161 °C.
